# Assays:
# [1] = tested on: [^3 H]-PN-200 110 (dihydropyridine) binding site of calcium channel, rat brain membranes; test: [^3 H]-PN-200 110 binding to rat brain membranes; design: species or system rat (male Wistar); conditions: for Specifically bound [^3 H]-PN-200 110 % of control value: compound concentration 1.0 μM; for Specifically bound [^3 H]-PN-200 110 % of control value / Bound ^3 H at 1.0 μM / Bound ^3 H at 0.1 μM: Table 1b; for Bound ^3 H at 1.0 μM / Bound ^3 H at 0.1 μM: ratio of [^3 H]-PN-200 110 bound at 1.0 and 0.1 μM compound
# Experimental: Diltiazem hydrochloride was a generous gift from Goedecke A. G.
# Water insoluble compounds were dissolved in absolute ethanol to give 10 mM or 2.5 mM stock solutions. Suitable dilutions were made in 50 mM Tris-HCl buffer (pH 7.4) containing 150 mM NaCl and 1 mM CaCl2. The ethanol concentration in the final assay never exceeded 0.1%.
# The purity of the radioligand and of the various agents tested was monitored by thin layer chromatography on silica gel plates.
# The following procedure was adapted from Bellemann et al (Proc. Nat. Acad. Sci. 80, 2356, 1983), and Gould et al (Proc. Nat. Acad. Sci. 79, 3656, 1982).
# Adult male Wistar rats weighing 250-300 g were anesthetized with carbon dioxide prior to decapitation. The brain was removed then immersed in ice-cold 0.32M sucrose and washed 2-3 times with fresh solution. Cerebral cortex was minced and homogenized (Potter-Elvehjem homogenizer) in 10 volumes of ice-cold sucrose solution. The homogenate was centrifuged (4° C.) at 1000×g for 15 minutes. The resulting supernatant was then centrifuged at 90000×g (30 minutes) and the pellet was washed twice with 20 ml ice-cold 50 mM Tris-HCl pH 7.4.
# The final pellet was resuspended in 50 mM Tris-HCl pH 7.4/150 mM NaCl/1 mM CaCl2 to give a protein concentration of 4 mg/ml.
# The membrane suspension was kept on ice until used. Binding assays were performed in subdued light to prevent dihydropyridine breakdown. Membrane protein (400 μg/tube) was incubated in 50 mM Tris-HCl buffer (pH 7.4)/150 mM NaCl/1 mM CaCl2 with the indicated concentrations of radioligand and test compounds or known calcium antagonists, in a total volume of 2 ml. After the indicated time intervals, the reaction was terminated by rapid filtration through Whatman GF/B glass fiber filters (2.4 cm diameter) on a Millipore filter holder. The assay tube was rinsed with 2 ml ice-cold 50 mM Tris-HCl pH (7.4) and the precipitate was further washed with 2×5 ml of the same buffer.
# Filters were dried under a heat lamp and were extracted with 10 ml of liquid scintillation cocktail (Toluene/Triton X-100, 2/1 containing 4 g Omnifluor/1) prior to tritium determination at 48% counting efficiency.
# Assays were performed in duplicate or triplicate.
# Data were expressed as percent specific [^3 H]-Nitrendipine binding relative to the established control value.
# Compound activity in the [^3 H]-Nitrendipine binding assay was evaluated by using the following criteria:
# 1. [^3 H]-Nitrendipine binding at 1.0 μM compound final concentration was either below 95% or above 105% of the control value determined in absence of compound.
# 2. The ratio obtained by dividing the amount of specifically found [^3 H]-Nitrendipine at 1.0 μM compound final concentration by the value obtained at 0.1 μM test compound, was smaller than 0.9 or greater than 1.1. This ratio is indicative of a dose response relationship within the compound concentration range tested, when the value differs appreciably from 1.0.
# Note: In some experiments [^3 H]-PN200 110, a new and commercially available specific dihydropyridine was used instead of [^3 H]-Nitrendipine.
# [2] = tested on: drug receptor sites associated with calcium channels; conditions: known calcium antagonists; cited from earlier work
# [3] = tested on: mean blood pressure in rat; test: Acute intravenous hypotensive activity in anesthetized rats; type: in vivo, rat (male Wistar); conditions: Rattus norvegicus, iv, read-out: Decrease in mean blood pressure (% pretest)
# Experimental: Male Wistar rats were anesthetized with Pentobarbital (Nembutal, 60 mg/kg i.p.) and heparinized (5 mg/kg i.p.). After tracheotomy the right carotid was cannulated (catheter PE 50); blood pressure was measured with a pressure transducer (Statham P 23 db) and recorded on a polygraph (Beckman).
# Animals received 0.5 and 1.5 mg/kg of the test compounds. Less than 100 μl of test compounds dissolved in 0.9% saline were injected in the jugular vein. Highly water insoluble compounds were suspended in 2% Tween-80. Injection of the vehicle alone had no detectable hypotensive effect.
# Results presented are expressed as percent decrease in initial mean blood pressure (Mean±SEM).
Compound,Specifically bound [^3 H]-PN-200 110 % of control value [1],Bound ^3 H at 1.0 μM / Bound ^3 H at 0.1 μM [1],other results
CCCCOP(=O)(CC(Cc1cc2c(cc1Cl)OCO2)CP(=O)(OCCCC)OCCCC)OCCCC [Compound 99],56 % of control value,0.627,–
CCCCOP(=O)(CC(CCOc1ccc(-c2ccccc2)cc1)CP(=O)(OCCCC)OCCCC)OCCCC [Compound 100],38 % of control value,0.504,–
CCCCOP(=O)(CC(Cc1cnc(C)c2c1COC(C)(C)O2)CP(=O)(OCCCC)OCCCC)OCCCC [Compound 101],47 % of control value,0.527,–
"CCCCOP(=O)(CC(Cc1cnc(C)c(O)c1CO)CP(=O)(OCCCC)OCCCC)OCCCC [Compound 102, Tetrabutyl 2-[5-(3-hydroxy-4-hydroxymethyl-2-methyl)pyridylmethyl]1,3-propylidenediphosphonate]",89 % of control value,0.925,–
CCCCOP(=O)(CC(Cc1ccc(CN2CCN(c3ccccc3)CC2)cc1)CP(=O)(OCCCC)OCCCC)OCCCC [Compound 104],59 % of control value,0.687,–
CCCCOP(=O)(CC(CCCC1(C)OCCO1)CP(=O)(OCCCC)OCCCC)OCCCC [Compound 106],42 % of control value,0.570,potency in [^3 H]-PN200 110 binding (in words) ([1]; text on Table 1b): as potent as Nifedipine
C=CCCOP(=O)(CC(CCOc1ccccc1)CP(=O)(OCCC=C)OCCC=C)OCCC=C [Compound 110],13 % of control value,0.294,–
COc1ccc(CCN(C)CCCC(C#N)(c2cc(OC)c(OC)c(OC)c2)C(C)C)cc1OC [Compound D-600],–,–,effect on [^3 H]-Nitrendipine binding (in words) [2]: reduce [^3 H]-Nitrendipine binding affinity
Fc1ccc(C(c2ccc(F)cc2)N2CCN(C/C=C/c3ccccc3)CC2)cc1 [Flunarizine],–,–,effect on [^3 H]-Nitrendipine binding (in words) [2]: reduce [^3 H]-Nitrendipine binding affinity
Cc1cccc(C)c1NC(=O)CN1CCN(CCCC(c2ccc(F)cc2)c2ccc(F)cc2)CC1 [Lidoflazine],–,–,effect on [^3 H]-Nitrendipine binding (in words) [2]: reduce [^3 H]-Nitrendipine binding affinity
"C[C@](N)(Cc1ccc(O)c(O)c1)C(=O)O [Methyl Dopa, reference compound]",–,–,inhibition in vivo at 1 mg/kg [3]: 0%
"CC(C)NCC(O)COc1cccc2ccccc12 (centres unmarked) [Propranolol, reference compound]",–,–,inhibition in vivo at 1 mg/kg [3]: 11.8 ± 1.1%
